# From patent US10457655B2, “Compounds and compositions for inhibition of FASN” (FORMA Therapeutics, Inc., priority 2013, dated 2019)
# Biological target: FASN enzyme (Homo sapiens, UniProt P49327)
# Assay: Enzymatic Assay for FASN Inhibitors
# Type: biochemical
# Method in brief: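 40 nM FASN preincubated with compound 60 min at 25° C in HEPES pH 7.3 buffer with 0.04% Triton X-100. Then 20 μM acetyl-CoA, 60 μM malonyl-CoA and 100 μM NADPH added for 90 min, quenched with CPM thiol probe; fluorescence 360/530 nm, IC50 by four-parameter fit.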
# FASN enzyme, sequence (P49327 whole entry): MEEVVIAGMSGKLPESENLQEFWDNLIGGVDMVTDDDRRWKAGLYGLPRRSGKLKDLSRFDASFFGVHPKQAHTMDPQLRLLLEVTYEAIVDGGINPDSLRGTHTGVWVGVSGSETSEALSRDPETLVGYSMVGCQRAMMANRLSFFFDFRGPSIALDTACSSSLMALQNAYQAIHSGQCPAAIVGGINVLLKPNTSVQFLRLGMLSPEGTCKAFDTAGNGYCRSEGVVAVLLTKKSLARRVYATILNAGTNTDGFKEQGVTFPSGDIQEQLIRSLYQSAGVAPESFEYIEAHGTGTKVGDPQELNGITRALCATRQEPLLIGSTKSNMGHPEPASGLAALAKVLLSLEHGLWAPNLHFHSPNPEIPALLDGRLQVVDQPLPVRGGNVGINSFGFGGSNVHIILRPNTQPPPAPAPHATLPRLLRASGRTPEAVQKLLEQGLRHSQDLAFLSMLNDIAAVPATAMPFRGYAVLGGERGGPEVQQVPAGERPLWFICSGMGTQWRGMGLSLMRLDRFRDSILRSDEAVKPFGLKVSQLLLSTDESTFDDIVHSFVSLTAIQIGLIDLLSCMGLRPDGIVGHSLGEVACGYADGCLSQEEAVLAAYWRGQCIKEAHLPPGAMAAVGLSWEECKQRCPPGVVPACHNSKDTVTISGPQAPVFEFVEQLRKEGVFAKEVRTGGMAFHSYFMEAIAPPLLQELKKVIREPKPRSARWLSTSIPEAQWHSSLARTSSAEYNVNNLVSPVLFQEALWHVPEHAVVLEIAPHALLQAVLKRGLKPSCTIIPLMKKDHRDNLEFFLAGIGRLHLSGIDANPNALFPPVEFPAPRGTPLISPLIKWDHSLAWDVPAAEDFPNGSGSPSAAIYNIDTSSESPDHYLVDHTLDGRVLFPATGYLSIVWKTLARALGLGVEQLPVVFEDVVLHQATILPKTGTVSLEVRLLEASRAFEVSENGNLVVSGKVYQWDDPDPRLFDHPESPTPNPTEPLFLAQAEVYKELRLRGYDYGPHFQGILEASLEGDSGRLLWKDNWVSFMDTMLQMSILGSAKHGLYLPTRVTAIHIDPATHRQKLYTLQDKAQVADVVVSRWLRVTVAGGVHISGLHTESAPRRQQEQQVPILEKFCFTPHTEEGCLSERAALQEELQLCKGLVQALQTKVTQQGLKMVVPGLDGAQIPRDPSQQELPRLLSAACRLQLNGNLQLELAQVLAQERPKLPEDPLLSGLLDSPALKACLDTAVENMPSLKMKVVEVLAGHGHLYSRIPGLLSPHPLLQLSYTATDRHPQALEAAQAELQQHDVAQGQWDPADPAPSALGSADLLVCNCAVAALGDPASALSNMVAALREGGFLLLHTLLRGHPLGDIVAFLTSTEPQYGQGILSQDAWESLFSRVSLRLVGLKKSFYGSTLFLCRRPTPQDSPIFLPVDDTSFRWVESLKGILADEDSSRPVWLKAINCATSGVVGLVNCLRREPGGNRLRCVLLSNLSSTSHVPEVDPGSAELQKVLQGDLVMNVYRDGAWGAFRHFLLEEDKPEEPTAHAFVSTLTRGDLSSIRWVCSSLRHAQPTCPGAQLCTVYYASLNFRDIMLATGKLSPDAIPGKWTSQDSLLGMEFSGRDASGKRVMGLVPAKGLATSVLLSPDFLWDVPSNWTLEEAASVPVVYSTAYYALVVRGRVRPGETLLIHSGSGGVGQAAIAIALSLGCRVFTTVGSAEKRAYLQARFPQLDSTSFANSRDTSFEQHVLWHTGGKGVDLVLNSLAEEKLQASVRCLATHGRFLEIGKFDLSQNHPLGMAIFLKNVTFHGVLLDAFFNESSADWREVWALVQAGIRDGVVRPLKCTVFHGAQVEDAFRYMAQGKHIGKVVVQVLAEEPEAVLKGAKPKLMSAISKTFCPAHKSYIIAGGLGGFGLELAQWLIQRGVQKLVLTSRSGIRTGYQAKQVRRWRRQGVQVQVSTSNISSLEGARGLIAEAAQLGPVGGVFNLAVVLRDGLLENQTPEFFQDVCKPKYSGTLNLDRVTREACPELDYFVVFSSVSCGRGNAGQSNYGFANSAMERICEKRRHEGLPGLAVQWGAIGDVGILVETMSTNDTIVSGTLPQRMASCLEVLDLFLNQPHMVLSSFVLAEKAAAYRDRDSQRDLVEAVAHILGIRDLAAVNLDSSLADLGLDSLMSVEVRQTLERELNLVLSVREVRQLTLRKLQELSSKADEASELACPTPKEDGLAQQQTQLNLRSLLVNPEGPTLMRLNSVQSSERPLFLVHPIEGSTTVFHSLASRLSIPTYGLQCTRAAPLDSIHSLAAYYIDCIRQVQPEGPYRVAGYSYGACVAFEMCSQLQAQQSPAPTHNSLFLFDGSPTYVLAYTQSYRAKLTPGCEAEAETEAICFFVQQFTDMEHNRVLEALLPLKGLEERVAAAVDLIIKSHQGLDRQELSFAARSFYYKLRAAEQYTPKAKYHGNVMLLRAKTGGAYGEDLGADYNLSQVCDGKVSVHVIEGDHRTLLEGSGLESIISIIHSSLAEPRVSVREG
row,Compound,IC50
1,"Cn1cnc2cc(-c3ccc(C(=O)N4CCN(C(=O)C5(N)CC5)CC4)cc3)ccc21 [1-{4-[4-(1-methyl-1H-1,3-benzodiazol-5-yl)benzoyl]piperazine-1-carbonyl}cyclopropan-1-amine]",< 0.5 µM
2,Cn1ncc2ccc(-c3ccc(C(=O)N4CCN(C(=O)C5(N)CCC5)CC4)cc3)cc21 [1-{4-[4-(1-methyl-1H-indazol-6-yl)benzoyl]piperazine-1-carbonyl}cyclobutan-1-amine],< 0.5 µM
3,"O=C(c1ccc(-n2cnc3ccccc32)cc1)N1CCN(C(=O)C2(O)CC2)CC1 [1-{4-[4-(1H-1,3-benzodiazol-1-yl)benzoyl]piperazine-1-carbonyl}cyclopropan-1-ol]",< 0.5 µM
4,"O=C(c1ccc(-c2cccc3[nH]cnc23)cc1Cl)N1CCN(C(=O)C2(O)CC2)CC1 [1-{4-[4-(1H-1,3-benzodiazol-4-yl)-2-chlorobenzoyl]piperazine-1-carbonyl}cyclopropan-1-ol]",< 0.5 µM
5,O=C(c1ccc(-n2ncc3ccccc32)cc1)N1CCN(C(=O)C2(O)CC2)CC1 [1-{4-[4-(1H-indazol-1-yl)benzoyl]piperazine-1-carbonyl}cyclopropan-1-ol],< 0.5 µM
6,O=C(c1ccc(-n2ccc3ccccc32)cc1)N1CCN(C(=O)C2(O)CC2)CC1 [1-{4-[4-(1H-indol-1-yl)benzoyl]piperazine-1-carbonyl}cyclopropan-1-ol],< 0.5 µM
7,"O=C(c1ccc(N2CCCc3ccccc3C2)cc1)N1CCN(C(=O)C2(O)CC2)CC1 [1-{4-[4-(2,3,4,5-tetrahydro-1H-2-benzazepin-2-yl)benzoyl]piperazine-1-carbonyl}cyclopropan-1-ol]",< 0.5 µM
8,"O=C(c1ccc(N2CCc3ccccc3CC2)cc1)N1CCN(C(=O)C2(O)CC2)CC1 [1-{4-[4-(2,3,4,5-tetrahydro-1H-3-benzazepin-3-yl)benzoyl]piperazine-1-carbonyl}cyclopropan-1-ol]",< 0.5 µM
9,"O=C(c1ccc(N2CCc3ccccc32)cc1)N1CCN(C(=O)C2(O)CC2)CC1 [1-{4-[4-(2,3-dihydro-1H-indol-1-yl)benzoyl]piperazine-1-carbonyl}cyclopropan-1-ol]",< 0.5 µM
10,"O=C(c1ccc(N2Cc3ccccc3C2)cc1)N1CCN(C(=O)C2(O)CC2)CC1 [1-{4-[4-(2,3-dihydro-1H-isoindol-2-yl)benzoyl]piperazine-1-carbonyl}cyclopropan-1-ol]",< 0.5 µM
11,O=C(c1ccc(-c2ccc3nn(C4CC4)cc3c2)cc1)N1CCN(C(=O)C2(O)CC2)CC1 [1-{4-[4-(2-cyclopropyl-2H-indazol-5-yl)benzoyl]piperazine-1-carbonyl}cyclopropan-1-ol],< 0.5 µM
12,"Cc1nc2ccccc2n1-c1ccc(C(=O)N2CCN(C(=O)C3(O)CC3)CC2)cc1 [1-{4-[4-(2-methyl-1H-1,3-benzodiazol-1-yl)benzoyl]piperazine-1-carbonyl}cyclopropan-1-ol]",< 0.5 µM
13,"Cc1nc2cc(-c3ccc(C(=O)N4CCN(C(=O)C5(O)CC5)CC4)cc3)ccc2[nH]1 [1-{4-[4-(2-methyl-1H-1,3-benzodiazol-5-yl)benzoyl]piperazine-1-carbonyl}cyclopropan-1-ol]",< 0.5 µM
14,Cc1[nH]c2ccccc2c1-c1ccc(C(=O)N2CCN(C(=O)C3(O)CC3)CC2)cc1 [1-{4-[4-(2-methyl-1H-indol-3-yl)benzoyl]piperazine-1-carbonyl}cyclopropan-1-ol],< 0.5 µM
15,"CC1Cc2ccccc2N1c1ccc(C(=O)N2CCN(C(=O)C3(O)CC3)CC2)cc1 (stereo not shown) [1-{4-[4-(2-methyl-2,3-dihydro-1H-indol-1-yl)benzoyl]piperazine-1-carbonyl}cyclopropan-1-ol]",< 0.5 µM
16,"Nc1noc2ccc(-c3ccc(C(=O)N4CCN(C(=O)C5(O)CC5)CC4)cc3)cc12 [1-{4-[4-(3-amino-1,2-benzoxazol-5-yl)benzoyl]piperazine-1-carbonyl}cyclopropan-1-ol]",< 0.5 µM
17,"Nc1noc2cc(-c3ccc(C(=O)N4CCN(C(=O)C5(O)CC5)CC4)cc3)ccc12 [1-{4-[4-(3-amino-1,2-benzoxazol-6-yl)benzoyl]piperazine-1-carbonyl}cyclopropan-1-ol]",< 0.5 µM
18,Nc1n[nH]c2ccc(-c3ccc(C(=O)N4CCN(C(=O)C5(O)CC5)CC4)cc3)cc12 [1-{4-[4-(3-amino-1H-indazol-5-yl)benzoyl]piperazine-1-carbonyl}cyclopropan-1-ol],< 0.5 µM
19,Nc1n[nH]c2cc(-c3ccc(C(=O)N4CCN(C(=O)C5(O)CC5)CC4)cc3)ccc12 [1-{4-[4-(3-amino-1H-indazol-6-yl)benzoyl]piperazine-1-carbonyl}cyclopropan-1-ol],< 0.5 µM

# Further lines, results first:
row,IC50,Compound
1,< 0.5 µM,O=C(c1ccc(-c2ccc3c(C4CC4)n[nH]c3c2)cc1)N1CCN(C(=O)C2(O)CC2)CC1 [1-{4-[4-(3-cyclopropyl-1H-indazol-6-yl)benzoyl]piperazine-1-carbonyl}cyclopropan-1-ol]
2,< 0.5 µM,"CC1Cc2ccccc2CN1c1ccc(C(=O)N2CCN(C(=O)C3(O)CC3)CC2)cc1 (stereo not shown) [1-{4-[4-(3-methyl-1,2,3,4-tetrahydroisoquinolin-2-yl)benzoyl]piperazine-1-carbonyl}cyclopropan-1-ol]"
3,< 0.5 µM,Cc1n[nH]c2cccc(-c3ccc(C(=O)N4CCN(C(=O)C5(O)CC5)CC4)cc3)c12 [1-{4-[4-(3-methyl-1H-indazol-4-yl)benzoyl]piperazine-1-carbonyl}cyclopropan-1-ol]
4,< 0.5 µM,Cc1n[nH]c2cc(-c3ccc(C(=O)N4CCN(C(=O)C5(N)CC5)CC4)cc3)ccc12 [1-{4-[4-(3-methyl-1H-indazol-6-yl)benzoyl]piperazine-1-carbonyl}cyclopropan-1-amine]
5,< 0.5 µM,Cc1n[nH]c2cc(-c3ccc(C(=O)N4CCN(C(=O)C5(O)CC5)CC4)cc3)ccc12 [1-{4-[4-(3-methyl-1H-indazol-6-yl)benzoyl]piperazine-1-carbonyl}cyclopropan-1-ol]
6,< 0.5 µM,Cc1n[nH]c2c(-c3ccc(C(=O)N4CCN(C(=O)C5(O)CC5)CC4)cc3)cccc12 [1-{4-[4-(3-methyl-1H-indazol-7-yl)benzoyl]piperazine-1-carbonyl}cyclopropan-1-ol]
7,< 0.5 µM,Cc1c2ccccc2nn1-c1ccc(C(=O)N2CCN(C(=O)C3(O)CC3)CC2)cc1 [1-{4-[4-(3-methyl-2H-indazol-2-yl)benzoyl]piperazine-1-carbonyl}cyclopropan-1-ol]
8,< 0.5 µM,O=C(c1ccc(-c2ccc(Cl)cc2F)cc1F)N1CCN(C(=O)C2(O)CC2)CC1 [1-{4-[4-(4-chloro-2-fluorophenyl)-2-fluorobenzoyl]piperazine-1-carbonyl}cyclopropan-1-ol]
9,< 0.5 µM,"CC1(C)CN(C(=O)C2(O)CC2)CCN1C(=O)c1ccc(-c2ccc(Cl)cc2F)cc1 [1-{4-[4-(4-chloro-2-fluorophenyl)benzoyl]-3,3-dimethylpiperazine-1-carbonyl}cyclopropan-1-ol]"
10,< 0.5 µM,"O=C(c1ccc(-c2ccc(Cl)cc2F)cc1)N1CCN(C(=O)C2(O)CC2)CC12CC2 [1-{4-[4-(4-chloro-2-fluorophenyl)benzoyl]-4,7-diazaspiro[2.5]octane-7-carbonyl}cyclopropan-1-ol]"
11,< 0.5 µM,"O=C(c1ccc(N2CCc3c(F)cccc32)cc1)N1CCN(C(=O)C2(O)CC2)CC1 [1-{4-[4-(4-fluoro-2,3-dihydro-1H-indol-1-yl)benzoyl]piperazine-1-carbonyl}cyclopropan-1-ol]"
12,< 0.5 µM,"O=C(c1ccc(N2Cc3cccc(F)c3C2)cc1)N1CCN(C(=O)C2(O)CC2)CC1 [1-{4-[4-(4-fluoro-2,3-dihydro-1H-isoindol-2-yl)benzoyl]piperazine-1-carbonyl}cyclopropan-1-ol]"
